The assay addresses recombinant human Nav1.7 (Homo sapiens (Human), UniProt Q15858). The experiment in a line: FRET-based membrane potential assay, recombinant human sodium channel Nav1.7. The class given is cell-based. The conditions noted are these: read-out: FRET-Membrane Potential Nav1.7 IC50. The method in brief:
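Channel activation used veratridine at its EC80, set by a dilution curve each experiment, together with Leiurus scorpion venom, added 3 min after compound. Membrane-potential ratio signals from FLIPR Tetra in HEPES-buffered HBSS were fitted to a four-parameter Hill equation for percent inhibition and IC50.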

Setting [1] is: HEK293 cells stably expressing recombinant human Nav1.7, veratridine + scorpion venom depolarization.

Like-named read-outs stand apart in the source and are kept apart here.

Chain of recombinant human Nav1.7 (Q15858 whole entry): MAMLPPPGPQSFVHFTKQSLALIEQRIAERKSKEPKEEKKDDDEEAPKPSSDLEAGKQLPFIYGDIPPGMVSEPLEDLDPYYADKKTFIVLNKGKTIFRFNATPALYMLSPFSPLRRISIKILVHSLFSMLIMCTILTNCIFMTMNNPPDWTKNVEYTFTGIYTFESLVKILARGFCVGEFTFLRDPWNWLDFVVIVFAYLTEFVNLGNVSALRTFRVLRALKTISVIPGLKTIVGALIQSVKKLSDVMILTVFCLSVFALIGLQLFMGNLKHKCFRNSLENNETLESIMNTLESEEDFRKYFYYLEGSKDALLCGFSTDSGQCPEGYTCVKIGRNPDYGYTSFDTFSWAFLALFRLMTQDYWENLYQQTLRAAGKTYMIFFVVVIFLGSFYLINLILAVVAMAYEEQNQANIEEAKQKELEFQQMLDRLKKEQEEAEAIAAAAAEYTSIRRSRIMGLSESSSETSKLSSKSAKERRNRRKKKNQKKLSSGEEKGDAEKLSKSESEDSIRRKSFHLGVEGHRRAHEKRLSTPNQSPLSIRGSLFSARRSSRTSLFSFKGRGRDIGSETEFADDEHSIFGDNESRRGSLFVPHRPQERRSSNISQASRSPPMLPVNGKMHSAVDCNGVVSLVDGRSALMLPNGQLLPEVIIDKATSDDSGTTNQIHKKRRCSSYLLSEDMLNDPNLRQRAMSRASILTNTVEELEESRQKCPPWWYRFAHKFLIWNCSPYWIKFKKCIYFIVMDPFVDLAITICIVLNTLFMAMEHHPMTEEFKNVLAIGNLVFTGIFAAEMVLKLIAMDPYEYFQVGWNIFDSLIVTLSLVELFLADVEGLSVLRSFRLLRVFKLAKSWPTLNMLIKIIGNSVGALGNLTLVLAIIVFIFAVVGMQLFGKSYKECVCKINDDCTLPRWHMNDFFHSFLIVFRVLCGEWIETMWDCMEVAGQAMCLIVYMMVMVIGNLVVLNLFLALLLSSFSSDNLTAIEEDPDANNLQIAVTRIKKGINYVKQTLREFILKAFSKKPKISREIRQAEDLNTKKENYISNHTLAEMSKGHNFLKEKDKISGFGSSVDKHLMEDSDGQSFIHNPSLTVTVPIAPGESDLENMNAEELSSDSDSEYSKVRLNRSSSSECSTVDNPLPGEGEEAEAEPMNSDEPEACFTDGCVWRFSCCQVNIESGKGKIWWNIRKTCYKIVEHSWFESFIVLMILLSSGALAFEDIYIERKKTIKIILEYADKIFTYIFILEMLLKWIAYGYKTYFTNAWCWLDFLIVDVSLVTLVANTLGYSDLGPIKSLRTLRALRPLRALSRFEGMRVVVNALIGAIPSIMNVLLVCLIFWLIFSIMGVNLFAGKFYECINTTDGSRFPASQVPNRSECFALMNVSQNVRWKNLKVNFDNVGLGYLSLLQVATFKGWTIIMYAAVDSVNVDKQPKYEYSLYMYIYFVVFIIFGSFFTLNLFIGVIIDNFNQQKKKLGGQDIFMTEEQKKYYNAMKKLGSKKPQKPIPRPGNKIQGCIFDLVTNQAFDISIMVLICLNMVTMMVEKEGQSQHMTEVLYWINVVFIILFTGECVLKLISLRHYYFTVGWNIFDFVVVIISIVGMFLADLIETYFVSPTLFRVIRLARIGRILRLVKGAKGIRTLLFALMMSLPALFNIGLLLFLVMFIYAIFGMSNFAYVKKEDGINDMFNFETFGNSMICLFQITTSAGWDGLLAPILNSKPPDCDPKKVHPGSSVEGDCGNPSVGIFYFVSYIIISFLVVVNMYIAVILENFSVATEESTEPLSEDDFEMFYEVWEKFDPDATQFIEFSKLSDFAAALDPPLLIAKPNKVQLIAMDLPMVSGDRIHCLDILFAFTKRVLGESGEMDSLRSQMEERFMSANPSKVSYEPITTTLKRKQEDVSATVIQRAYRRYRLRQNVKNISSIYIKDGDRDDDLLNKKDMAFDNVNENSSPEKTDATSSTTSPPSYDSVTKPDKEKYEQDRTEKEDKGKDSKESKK

The term IC50 denotes the point on the concentration scale where inhibition reaches its midpoint. In the case of `CN(CC(=O)NC1CC1)C(=O)c1ccc2cc(Oc3ccc(C(F)(F)F)cn3)ccc2n1` [Example 452, N-[2-(cyclopropylamino)-2-oxoethyl]-N-methyl-6-{[5-(trifluoromethyl)pyridin-2-yl]oxy}quinoline-2-carboxamide], under setting [1], the IC50 stood at 3.21 µM.

Turning to `O=C(c1ccc2cc(Oc3ccc(C(F)(F)F)cn3)ccc2n1)N1CCC[C@@]12CC[C@H](O)C2` [Example 313, [(5S,7S)-7-hydroxy-1-azaspiro[4.4]non-1-yl](6-{[5-(trifluoromethyl)pyridin-2-yl]oxy}quinolin-2-yl)methanone], the IC50 under setting [1] stood at 14 µM. For the molecule `O=C(NC1CC2CCC(C1)N2)c1ccc2cc(Oc3ccc(C(F)(F)F)cn3)ccc2n1` (stereo not shown) [Example 267, N-(8-azabicyclo[3.2.1]oct-3-yl)-6-{[5-(trifluoromethyl)pyridin-2-yl]oxy}quinoline-2-carboxamide], the IC50 was 10.2 µM. Take `O=C(NCCC(=O)N1CCCCC1)c1ccc2cc(Oc3ccc(C(F)F)cn3)ccc2n1` [Example 463, 6-{[5-(difluoromethyl)pyridin-2-yl]oxy}-N-[3-oxo-3-(piperidin-1-yl)propyl]quinoline-2-carboxamide]: the IC50 under setting [1] turned out to be 1.12 µM. Turning to `O=C(NCCN1CCCC1)c1ccc2cc(Oc3ccc(C(F)(F)F)cn3)ccc2n1` [Example 174, N-[2-(pyrrolidin-1-yl)ethyl]-6-{[5-(trifluoromethyl)pyridin-2-yl]oxy}quinoline-2-carboxamide], under setting [1], the IC50 was determined as 0.294 µM. For `N#Cc1ccc(Oc2ccc3nc(C(=O)N[C@@H]4CCOc5ccc(F)cc54)ccc3c2)cc1` [Example 139, 6-(4-cyanophenoxy)-N-[(4R)-6-fluoro-3,4-dihydro-2H-chromen-4-yl]quinoline-2-carboxamide], under setting [1], the 50% inhibitory concentration (IC50) is > 20 µM. `CN1CCN(C(=O)c2ccc3cc(Oc4ccc(C(F)F)cn4)ccc3n2)CC1=O` [Example 464, 4-[(6-{[5-(difluoromethyl)pyridin-2-yl]oxy}quinolin-2-yl)carbonyl]-1-methylpiperazin-2-one]: under setting [1], the IC50 was > 20 µM. On the same count and under the same terms, with `O=C(c1ccc2cc(Oc3ccc(C(F)(F)F)cn3)ccc2n1)N1CC(F)(F)C1` [Example 508, (3,3-difluoroazetidin-1-yl)(6-{[5-(trifluoromethyl)pyridin-2-yl]oxy}quinolin-2-yl)methanone] the figure was 3.65 µM. Regarding `O=C(c1ccc2cc(Oc3ccc(C(F)(F)F)nn3)ccc2n1)N1CCNCC1` [Example 246, piperazin-1-yl(6-{[6-(trifluoromethyl)pyridazin-3-yl]oxy}quinolin-2-yl)methanone], under setting [1], the IC50 was found to be 19.8 µM. With `O=C(c1ccc2cc(Oc3ccc(C(F)(F)F)cn3)ccc2n1)N1CC[C@H](O)C1` [Example 283, [(3S)-3-hydroxypyrrolidin-1-yl](6-{[5-(trifluoromethyl)pyridin-2-yl]oxy}quinolin-2-yl)methanone], under setting [1], the IC50 stood at 10.9 µM. The same measure, in the same setting: with `CO[C@H]1CN(C(=O)c2ccc3cc(Oc4ccc(C(F)(F)F)cn4)ccc3n2)C[C@H]1OC` [Example 324, [cis-3,4-dimethoxypyrrolidin-1-yl](6-{[5-(trifluoromethyl)pyridin-2-yl]oxy}quinolin-2-yl)methanone] the figure was 5.01 µM; with `O=C(c1ccc2cc(Oc3ccc(C(F)(F)F)cn3)ccc2n1)N1CC(F)(F)C[C@H]1CO` [Example 497, [(2S)-4,4-difluoro-2-(hydroxymethyl)pyrrolidin-1-yl](6-{[5-(trifluoromethyl)pyridin-2-yl]oxy}quinolin-2-yl)methanone], 3.43 µM. The same measure, in the same setting: with `CNC(=O)CNC(=O)c1ccc2cc(Oc3ccc(C#N)cc3)ccc2n1` [Example 145, 6-(4-cyanophenoxy)-N-[2-(methylamino)-2-oxoethyl]quinoline-2-carboxamide] the figure was 3.09 µM. On the same count and under the same terms, for `O=C(NCC(F)F)c1ccc2cc(Oc3ccc(C(F)(F)F)cn3)ccc2n1` [Example 347, N-(2,2-difluoroethyl)-6-{[5-(trifluoromethyl)pyridin-2-yl]oxy}quinoline-2-carboxamide] the value was 2.63 µM; for `O=C(c1ccc2cc(Oc3ccc(C(F)(F)F)cn3)ccc2n1)N1CCN(Cc2cocn2)CC1` [Example 315, [4-(1,3-oxazol-4-ylmethyl)piperazin-1-yl](6-{[5-(trifluoromethyl)pyridin-2-yl]oxy}quinolin-2-yl)methanone], 6.12 µM. On to `O=C(c1ccc2cc(Oc3ccc(C(F)(F)F)cn3)ccc2n1)N1CC(F)C1` [Example 507, (3-fluoroazetidin-1-yl)(6-{[5-(trifluoromethyl)pyridin-2-yl]oxy}quinolin-2-yl)methanone], for which the IC50 under setting [1] stood at 2.18 µM. Regarding `O=C(NCC(=O)N1CCS(=O)(=O)C1)c1ccc2cc(Oc3ccc(C(F)(F)F)cn3)ccc2n1` [Example 568, N-[2-(1,1-dioxido-1,3-thiazolidin-3-yl)-2-oxoethyl]-6-{[5-(trifluoromethyl)pyridin-2-yl]oxy}quinoline-2-carboxamide], the IC50 under setting [1] was 3.26 µM. “[cis-2,2-dimethyltetrahydro-5H-[1,3]dioxolo[4,5-c]pyrrol-5-yl](6-{[5-(trifluoromethyl)pyridin-2-yl]oxy}quinolin-2-yl)methanone [Example 373]”: the half-maximal inhibitory concentration (IC50) under setting [1] worked out at 3.7 µM.

For the molecule `CNC(=O)c1ccc2cc(Oc3ccc(C(F)(F)F)cn3)ccc2n1` [Example 527, N-methyl-6-{[5-(trifluoromethyl)pyridin-2-yl]oxy}quinoline-2-carboxamide], the IC50 amounted to 5.91 µM. On to `O=C1NC[C@@H]2CN(C(=O)c3ccc4cc(Oc5ccc(C(F)(F)F)cn5)ccc4n3)C[C@H]12` [Example 166, (3 aR,6aR)-5-[(6-{[5-(trifluoromethyl)pyridin-2-yl]oxy}quinolin-2-yl)carbonyl]hexahydropyrrolo[3,4-c]pyrrol-1(2H)-one], for which the IC50 under setting [1] is 11.1 µM. `O=C(c1ccc2cc(Oc3ccc(C(F)F)cn3)ccc2n1)N1CCN2CC(F)(F)C[C@H]2C1` [Example 542, [(8aS)-7,7-difluorohexahydropyrrolo[1,2-a]pyrazin-2(1H)-yl](6-{[5-(difluoromethyl)pyridin-2-yl]oxy}quinolin-2-yl)methanone]: the IC50 was determined as 14.5 µM. Regarding `CC(=O)c1ccc(Oc2ccc3nc(C(=O)N4CCNCC4)ccc3c2)nc1` [Example 226, 1-(6-{[2-(piperazin-1-ylcarbonyl)quinolin-6-yl]oxy}pyridin-3-yl)ethanone], under setting [1], the IC50 is > 20 µM. `Cc1noc(C2CCCN(C(=O)c3ccc4cc(Oc5ccccn5)ccc4n3)C2)n1` (stereo not shown) [Example 78, [3-(3-methyl-1,2,4-oxadiazol-5-yl)piperidin-1-yl][6-(pyridin-2-yloxy)quinolin-2-yl]methanone]: the half-maximal inhibitory concentration (IC50) is > 20 µM. Consider `O=C(NCC1C[S+]([O-])C1)c1ccc2cc(Oc3ccc(C(F)(F)F)cn3)ccc2n1` (stereo not shown) [Example 601, N-[(1-oxidothietan-3-yl)methyl]-6-{[5-(trifluoromethyl)pyridin-2-yl]oxy}quinoline-2-carboxamide], for which the IC50 under setting [1] stood at 2.51 µM.

For the molecule `O=C(c1ccc2cc(Oc3ccc(C(F)(F)F)cn3)ccc2n1)N1CCN(S(=O)(=O)c2ccccc2)CC1` [Example 178, [4-(phenylsulfonyl)piperazin-1-yl](6-{[5-(trifluoromethyl)pyridin-2-yl]oxy}quinolin-2-yl)methanone], the IC50 came out at 0.523 µM. Take `COCO[C@H]1CN(C(=O)c2ccc3cc(Oc4ccc(C(F)(F)F)cn4)ccc3n2)C[C@H]1O` (relative stereo) [Example 368, [cis-3-hydroxy-4-(methoxymethoxy)pyrrolidin-1-yl](6-{[5-(trifluoromethyl)pyridin-2-yl]oxy}quinolin-2-yl)methanone]: the IC50 under setting [1] is 1.25 µM. `O=C(NCCC(=O)N1CCOCC1)c1ccc2cc(Oc3ccc(C(F)(F)F)cn3)ccc2n1` [Example 444, N-[3-(morpholin-4-yl)-3-oxopropyl]-6-{[5-(trifluoromethyl)pyridin-2-yl]oxy}quinoline-2-carboxamide]: the IC50 under setting [1] is 1.4 µM. In the case of `O=C(NC1CC(F)C1)c1ccc2cc(Oc3ccc(C(F)(F)F)cn3)ccc2n1` (stereo not shown) [Example 604, N-(3-fluorocyclobutyl)-6-{[5-(trifluoromethyl)pyridin-2-yl]oxy}quinoline-2-carboxamide], the IC50 under setting [1] came to 3.01 µM. With `COC1CN(C(=O)c2ccc3cc(Oc4ccc(C(F)(F)F)cn4)ccc3n2)C1` [Example 396, (3-methoxyazetidin-1-yl)(6-{[5-(trifluoromethyl)pyridin-2-yl]oxy}quinolin-2-yl)methanone], the half-inhibitory concentration (IC50) under setting [1] is 1.94 µM.

`N#Cc1ccc(Oc2ccc3nc(C(=O)NCCCN4CCCCC4)ccc3c2)cc1` [Example 100, 6-(4-cyanophenoxy)-N-[3-(piperidin-1-yl)propyl]quinoline-2-carboxamide]: the IC50 under setting [1] stood at 0.221 µM. Still for that read-out and setting: for `O=C(c1ccc2cc(Oc3ccc(C(F)(F)F)cn3)ccc2n1)N1CC[C@H](NS(=O)(=O)c2ccc(C(F)(F)F)cc2)[C@H]1c1ccccc1` [Example 225, N-{(2R,3S)-2-phenyl-1-[(6-{[5-(trifluoromethyl)pyridin-2-yl]oxy}quinolin-2-yl)carbonyl]pyrrolidin-3-yl}-4-(trifluoromethyl)benzenesulfonamide] the value was > 20 µM. Consider `O=C(NCCOC(F)(F)F)c1ccc2cc(Oc3ccc(C(F)(F)F)cn3)ccc2n1` [Example 547, N-[2-(trifluoromethoxy)ethyl]-6-{[5-(trifluoromethyl)pyridin-2-yl]oxy}quinoline-2-carboxamide], for which the IC50 came out at 3.29 µM. Regarding `O=C(c1ccc2cc(Oc3ccc(C(F)(F)F)cn3)ccc2n1)N1CC[C@H](O)[C@H]1CO` [Example 304, [(2R,3S)-3-hydroxy-2-(hydroxymethyl)pyrrolidin-1-yl](6-{[5-(trifluoromethyl)pyridin-2-yl]oxy}quinolin-2-yl)methanone], the IC50 under setting [1] was > 20 µM. On the same count and under the same terms, with `O=C(c1ccc2cc(Oc3ccccn3)ccc2n1)N1CCOCC1` [Example 76, morpholin-4-yl[6-(pyridin-2-yloxy)quinolin-2-yl]methanone] the figure was > 20 µM.

The values are drawn from patent US9452986B2, “6-heteroaryloxy- or 6-aryloxy-quinoline-2-carboxamides and method of use” (AbbVie Inc., priority 2014, dated 2016).
